Assay results published in patent US20150183802A1, “TRICYCLIC SULFONAMIDE DERIVATIVES” (NOVARTIS AG, priority 2013, published 2015).

molecular target: T1, hNav1.7 channels (Homo sapiens, UniProt Q15858); assay: hNav1.7 channel in vitro patch-clamp assay; format: cell-based; conditions: stable HEK293 cell line expressing hNav1.7; whole cell patch-clamp
T1 construct: host or cells: HEK293
Description: hNav1.7 Channel In Vitro Patch-Clamp Assay
Cells: Sable HEK293 (human embryonic kidney) cell line expressing hNav1.7 channels was used in the assay. The cell line was obtained from Millipore (Millipore Corporation, MA).
Patch-clamp recordings: The recordings were performed on QPatch HTX (Sophion Bioscience, Denmark) and/or conventional patch-clamp (Axon Multiclamp 700B systems, Molecular Devices, CA) platforms at room temperature, using whole cell patch-clamp techniques. The composition of extracellular solution was (in mM): HEPES 5, NaCl 40, KCl 3, CaCl2 1, MgCl2 1, Choline Chloride 100. Adjust pH to 7.2 with 1N NaOH, osmolarity to 300-310 mOsm with sucrose. The composition of intracellular solution was (in mM): HEPES 10, NaCl 10, Na2ATP 1, MgCl2 2, KF 135, EGTA 10. Adjust pH to 7.2 with 1N NaOH, osmolarity to 290-300 mOsm with sucrose.
For conventional patch-clamp, 35 mm culture dishes containing hNav1.7 cells were placed on the stage of an inverted microscope and continuously perfused with extracellular solution from a perfusion system (Biologic Rapid solution changer, RSC-160, ˜1 ml/min). […] The recordings were controlled by pCLAMP10 software. Test compounds were dissolved in 100% DMSO to make stock solutions for each test concentration, and then diluted into extracellular solution to achieve final concentration for testing. Final DMSO concentration was less than 0.3%. Two voltage protocols were used in hNav1.7 assay: for non-inactivated protocol, the sodium currents were elicited by a 2 ms pulse to −10 mV from a holding potential of −110 mV. For inactivated protocol, the holding potential was set at V1/2. The voltage was firstly stepped to −110 mV for 50 ms, then to −10 mV for 2 ms and then stepped back to holding potential. In both protocols the voltage command was given in every 10 s. Compound effect (% inhibition) was determined by difference in current amplitude before and after the application of test compounds. IC50 values were determined from concentration-response curves that were obtained with Hill fitting.
For QPatch HTX assay, hNav1.7 cells grown to 50%-80% confluence were rinsed with DPBS and dissociated with Tryple (Invitrogen, 12605-010). The dissociated cells were then mixed with extracellular solution. After centrifuge, the cells were resuspended in extracellular solution and used in the QPatch experiment. The whole-cell protocols, voltage protocols and application protocols were established with QPatch Assay Software 3.4 (Sophion Bioscience, Denmark). Only the inactivated protocol was used in the QPatch assay.

T1 sequence (Q15858 whole entry): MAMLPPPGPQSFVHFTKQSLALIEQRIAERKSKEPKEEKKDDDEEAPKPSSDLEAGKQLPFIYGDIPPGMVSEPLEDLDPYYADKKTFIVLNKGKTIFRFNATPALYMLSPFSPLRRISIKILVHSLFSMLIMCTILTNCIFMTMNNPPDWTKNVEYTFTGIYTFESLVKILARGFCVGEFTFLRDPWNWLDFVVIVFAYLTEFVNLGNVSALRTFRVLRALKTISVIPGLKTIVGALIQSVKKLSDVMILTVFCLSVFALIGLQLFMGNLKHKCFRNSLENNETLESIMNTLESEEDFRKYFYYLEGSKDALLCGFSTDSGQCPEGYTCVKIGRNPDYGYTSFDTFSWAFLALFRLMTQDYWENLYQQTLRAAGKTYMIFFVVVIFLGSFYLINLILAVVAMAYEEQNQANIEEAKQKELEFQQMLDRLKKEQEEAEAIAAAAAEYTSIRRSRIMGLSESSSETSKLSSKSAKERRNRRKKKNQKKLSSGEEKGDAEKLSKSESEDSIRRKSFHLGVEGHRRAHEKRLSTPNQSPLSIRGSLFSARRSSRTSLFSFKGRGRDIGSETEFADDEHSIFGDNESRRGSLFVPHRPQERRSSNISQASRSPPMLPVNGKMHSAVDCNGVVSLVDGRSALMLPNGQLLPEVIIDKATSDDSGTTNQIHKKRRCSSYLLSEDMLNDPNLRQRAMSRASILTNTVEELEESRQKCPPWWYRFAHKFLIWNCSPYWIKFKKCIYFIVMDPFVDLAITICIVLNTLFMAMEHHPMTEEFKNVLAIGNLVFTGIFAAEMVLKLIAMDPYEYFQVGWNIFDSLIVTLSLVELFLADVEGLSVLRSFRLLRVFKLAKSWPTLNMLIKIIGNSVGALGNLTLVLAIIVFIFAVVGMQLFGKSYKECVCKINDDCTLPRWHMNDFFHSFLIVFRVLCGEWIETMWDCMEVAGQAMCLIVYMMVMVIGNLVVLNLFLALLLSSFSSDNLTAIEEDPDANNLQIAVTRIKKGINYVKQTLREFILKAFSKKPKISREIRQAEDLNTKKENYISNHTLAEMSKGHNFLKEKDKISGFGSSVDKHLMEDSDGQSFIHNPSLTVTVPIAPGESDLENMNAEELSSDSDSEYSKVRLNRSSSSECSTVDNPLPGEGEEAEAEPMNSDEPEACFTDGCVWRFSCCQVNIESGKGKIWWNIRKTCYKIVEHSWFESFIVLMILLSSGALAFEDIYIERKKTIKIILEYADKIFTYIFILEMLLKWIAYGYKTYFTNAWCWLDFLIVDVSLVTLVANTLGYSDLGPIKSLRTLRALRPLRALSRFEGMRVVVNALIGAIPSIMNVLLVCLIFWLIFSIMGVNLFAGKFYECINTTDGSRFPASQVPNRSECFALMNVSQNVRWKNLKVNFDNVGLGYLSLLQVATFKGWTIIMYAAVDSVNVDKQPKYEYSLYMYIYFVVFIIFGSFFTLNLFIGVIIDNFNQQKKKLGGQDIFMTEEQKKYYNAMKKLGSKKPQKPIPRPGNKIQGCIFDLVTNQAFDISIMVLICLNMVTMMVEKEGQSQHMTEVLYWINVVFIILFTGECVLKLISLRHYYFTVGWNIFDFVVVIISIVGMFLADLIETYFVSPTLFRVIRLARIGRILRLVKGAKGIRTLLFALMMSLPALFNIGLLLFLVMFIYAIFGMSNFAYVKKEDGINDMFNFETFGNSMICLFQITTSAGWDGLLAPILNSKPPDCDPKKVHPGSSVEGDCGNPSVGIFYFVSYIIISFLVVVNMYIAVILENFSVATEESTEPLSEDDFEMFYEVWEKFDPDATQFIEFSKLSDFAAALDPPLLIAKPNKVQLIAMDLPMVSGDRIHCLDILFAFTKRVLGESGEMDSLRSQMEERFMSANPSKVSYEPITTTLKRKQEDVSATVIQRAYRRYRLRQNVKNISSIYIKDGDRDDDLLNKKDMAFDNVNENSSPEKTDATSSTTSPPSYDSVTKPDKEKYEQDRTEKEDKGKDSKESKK

| SMILES | activity in the hNav1.7 patch-clamp assay (in words) |
| --- | --- |
| CC(C)COc1ncc(N2C(=O)C3(CC3)c3cc4c(NS(=O)(=O)N5CCC5)noc4cc32)cc1Cl [N-(7′-(5-chloro-6-isobutoxypyridin-3-yl)-6′-oxo-6′,7′-dihydrospiro[cyclopropane-1,5′-isoxazolo[4,5-f]indol]-3′-yl)azetidine-1-sulfonamide] | did not show any activity |

same assay, conditions: stable HEK293 cell line expressing hNav1.7; whole cell patch-clamp (QPatch HTX and/or conventional), room temperature; voltage protocol not given

| SMILES | IC50 [nM] |
| --- | --- |
| O=C1N(c2cnc(OC3CCC3)c(Cl)c2)c2cc3onc(NS(=O)(=O)C4CC4)c3cc2C12CC2 [Example 21, N-(7′-(5-chloro-6-cyclobutoxypyridin-3-yl)-6′-oxo-6′,7′-dihydrospiro[cyclopropane-1,5′-isoxazolo[4,5-f]indol]-3′-yl)cyclopropanesulfonamide] | 150 |
| C[C@H](Oc1ncc(N2C(=O)C3(CC3)c3cc4c(NS(=O)(=O)C5CC5)noc4cc32)cc1Cl)c1ccc(F)cc1 [Example 18, (S)—N-(7′-(5-chloro-6-(1-(4-fluorophenyl)ethoxy)pyridin-3-yl)-6′-oxo-6′,7′-dihydrospiro[cyclopropane-1,5′-isoxazolo[4,5-f]indol]-3′-yl)cyclopropanesulfonamide] | 100 |
| O=C1N(c2cnc(OC(F)F)c(Cl)c2)c2cc3onc(NS(=O)(=O)C4CC4)c3cc2C12CC2 [Example 30, N-(7′-(5-chloro-6-(difluoromethoxy)pyridin-3-yl)-6′-oxo-6′,7′-dihydrospiro[cyclopropane-1,5′-isoxazolo[4,5-f]indol]-3′-yl)cyclopropanesulfonamide] | 630 |
| CC(C)COc1ncc(-n2c(=O)n(C)c3cc4c(NS(C)(=O)=O)noc4cc32)cc1Cl [Example 34, N-(7-(5-chloro-6-isobutoxypyridin-3-yl)-5-methyl-6-oxo-6,7-dihydro-5H-imidazo[4′,5′:4,5]benzo[1,2-d]isoxazol-3-yl)methanesulfonamide] | 100 |
| O=C1N(c2cnc(OCC(F)(F)F)c(Cl)c2)c2cc3onc(NS(=O)(=O)C4CC4)c3cc2C12CC2 [Example 20, N-(7′-(5-chloro-6-(2,2,2-trifluoroethoxyl)pyridin-3-yl)-6′-oxo-6′,7′-dihydrospiro[cyclopropane-1,5′-isoxazolo[4,5-f]indol]-3′-yl)cyclopropanesulfonamide] | 500 |
| O=C1N(c2cnc(OC3CC(F)(F)C3)c(Cl)c2)c2cc3onc(NS(=O)(=O)C4CC4)c3cc2C12CC2 [Example 19, N-(7′-(5-chloro-6-(3,3-difluorocyclobutoxyl)pyridin-3-yl)-6′-oxo-6′,7′-dihydrospiro[cyclopropane-1,5′-isoxazolo[4,5-f]indol]-3′-yl)cyclopropanesulfonamide] | 200 |
| O=C1N(c2cnc(OCC3CC3)c(Cl)c2)c2cc3onc(NS(=O)(=O)C4CC4)c3cc2C12CC2 [Example 28, N-(7′-(5-chloro-6-(cyclopropylmethoxy)pyridin-3-yl)-6′-oxo-6′,7′-dihydrospiro[cyclopropane-1,5′-isoxazolo[4,5-f]indol]-3′-yl)cyclopropanesulfonamide] | 200 |
| CC(C)COc1ncc(N2C(=O)C3(CC3)c3cc4c(NS(=O)(=O)C5CC5)noc4cc32)cc1Cl [Example 2, N-(7′-(5-chloro-6-isobutoxypyridin-3-yl)-6′-oxo-6′,7′-dihydrospiro[cyclopropane-1,5′-isoxazolo[4,5-f]indol]-3′-yl)cyclopropanesulfonamide] | 80 |
| O=C1N(c2cnc(OCC3CCC3)c(Cl)c2)c2cc3onc(NS(=O)(=O)C4CC4)c3cc2C12CC2 [Example 25, N-(7′-(5-chloro-6-(cyclobutylmethoxy)pyridin-3-yl)-6′-oxo-6′,7′-dihydrospiro[cyclopropane-1,5′-isoxazolo[4,5-f]indol]-3′-yl)cyclopropanesulfonamide] | 80 |
| CC(C)COc1ncc(N2C(=O)C3(CC3)c3cc4c(NS(=O)(=O)C5CC5)noc4cc32)cc1F [Example 22, N-(7′-(5-fluoro-6-isobutoxypyridin-3-yl)-6′-oxo-6′,7′-dihydrospiro[cyclopropane-1,5′-isoxazolo[4,5-f]indol]-3′-yl)cyclopropanesulfonamide] | 300 |
| CC(C)COc1ncc(N2CCOc3cc4c(NS(C)(=O)=O)noc4cc32)cc1Cl [Example 63, N-(8-(5-chloro-6-isobutoxypyridin-3-yl)-7,8-dihydro-6H-isoxazolo[5′,4′:4,5]benzo[1,2-b][1,4]oxazin-3-yl)methanesulfonamide] | 530 |
| CC(C)COc1ncc(N2C(=O)C3(CC3)c3cc4c(NS(=O)(=O)N(C)C)noc4cc32)cc1Cl [Example 9, N-(7′-(5-chloro-6-isobutoxypyridin-3-yl)-6′-oxo-6′,7′-dihydrospiro[cyclopropane-1,5′-isoxazolo[4,5-f]indol]-3′-yl)dimethylamino-1-sulfonamide] | 1230 |
| CS(=O)(=O)Nc1noc2cc3c(cc12)C1(CC1)C(=O)N3c1cnc(OCC2CCCCC2)c(Cl)c1 [Example 11, N-(7′-(5-chloro-6-(cyclohexylmethoxy)pyridin-3-yl)-6′-oxo-6′,7′-dihydrospiro[cyclopropane-1,5′-isoxazolo[4,5-f]indol]-3′-yl)methanesulfonamide] | 100 |
| CC(C)COc1ncc(-n2cc(C(N)=O)c3cc4c(NS(=O)(=O)C5CC5)noc4cc32)cc1Cl [Example 49, 7-(5-chloro-6-isobutoxypyridin-3-yl)-3-(cyclopropanesulfonamido)-7H-isoxazolo[4,5-f]indole-5-carboxamide] | 1180 |
| CC(C)COc1c(F)cc(N2C(=O)C3(CC3)c3cc4c(NS(=O)(=O)C5CC5)noc4cc32)cc1Cl [Example 33, N-(7′-(3-chloro-5-fluoro-4-isobutoxyphenyl)-6′-oxo-6′,7′-dihydrospiro[cyclopropane-1,5′-isoxazolo[4,5-f]indol]-3′-yl)cyclopropanesulfonamide] | 100 |
| Cc1cc2cc3c(NS(=O)(=O)C4CC4)noc3cc2c(-c2cnc(OCC(C)C)c(Cl)c2)n1 [Example 61, N-(8-(5-chloro-6-isobutoxypyridin-3-yl)-6-methylisoxazolo[4,5-g]isoquinolin-3-yl)cyclopropanesulfonamide] | 510 |
| CC1CCC(COc2ncc(N3C(=O)C4(CC4)c4cc5c(NS(=O)(=O)C6CC6)noc5cc43)cc2Cl)CC1 (centres unmarked) [Example 23, N-(7′-(5-chloro-6-((4-methylcyclohexyl)methoxy)pyridin-3-yl)-6′-oxo-6′,7′-dihydrospiro[cyclopropane-1,5′-isoxazolo[4,5-f]indol]-3′-yl)cyclopropanesulfonamide] | 200 |
| CCS(=O)(=O)Nc1noc2cc3c(cc12)C1(CC1)C(=O)N3c1cnc(OCC(C)C)c(Cl)c1 [Example 4, N-(7′-(5-chloro-6-isobutoxypyridin-3-yl)-6′-oxo-6′,7′-dihydrospiro[cyclopropane-1,5′-isoxazolo[4,5-f]indol]-3′-yl)ethanesulfonamide] | 100 |
| CC(C)COc1ncc(N2C(=O)C3(CCC3)c3cc4c(NS(=O)(=O)C5CC5)noc4cc32)cc1Cl [Example 37, N-(7′-(5-chloro-6-isobutoxypyridin-3-yl)-6′-oxo-6′,7′-dihydrospiro[cyclobutane-1,5′-isoxazolo[4,5-f]indol]-3′-yl)cyclopropanesulfonamide] | 40 |
| CC(C)COc1ncc(-n2cc(C(F)(F)F)c3cc4c(NS(=O)(=O)C5CC5)noc4cc32)cc1Cl [Example 41, N-(7-(5-chloro-6-isobutoxypyridin-3-yl)-5-(trifluoromethyl)-7H-isoxazolo[4,5-f]indol-3-yl)cyclopropanesulfonamide] | 50 |
| CC(C)COc1ncc(-n2c(=O)n(C)c3cc4c(NS(=O)(=O)C5CC5)noc4cc32)cc1Cl [Example 35, N-(7-(5-chloro-6-isobutoxypyridin-3-yl)-5-methyl-6-oxo-6,7-dihydro-5H-imidazo[4′,5′:4,5]benzo[1,2-d]isoxazol-3-yl)cyclopropanesulfonamide] | 100 |
| CC(C)COc1ncc(N2C(=O)C(C)(C)c3cc4c(NS(=O)(=O)C5CC5)noc4cc32)cc1Cl [Example 36, N-(7-(5-chloro-6-isobutoxypyridin-3-yl)-5,5-dimethyl-6-oxo-6,7-dihydro-5H-isoxazolo[4,5-f]indol-3-yl)cyclopropanesulfonamide] | 70 |
